In ChEMBL document CHEMBL5143541, “Novel structural-related analogs of PFI-3 (SRAPs) that target the BRG1 catalytic subunit of the SWI/SNF complex increase the activity of temozolomide in glioblastoma cells” (Bioorg Med Chem, 2022):
The source made the active and inactive calls. The rule behind the calls is not given here.

What was measured:
MT330 [1] = assay: Induction of cell death in human MT330 cells assessed as reduction in cell viability at 2 uM after 3 days by ELISA; assay type: functional, cell-based; conditions: time 3.0 day
MT330 [2] = assay: Induction of cell death in human MT330 cells assessed as reduction in cell viability at 2 uM combination with TMZ after 3 days by ELISA; assay type: functional, cell-based; conditions: time 3.0 day
LN-229 [3] = assay: Antiproliferative activity against human LN-229 cells assessed as reduction in cell viability at 2 uM up to 7 days by incucyte live cell assay; assay type: functional, cell-based; conditions: time <= 7.0 day
LN-229 [4] = assay: Antiproliferative activity against human LN-229 cells assessed as reduction in cell viability at 2 uM combination with TMZ up to 7 days by incucyte live cell assay; assay type: functional, cell-based; conditions: time <= 7.0 day
MT330 [5] = assay: Anti-tumor activity against human MT330 cells xenografted in NSG mouse assessed as reduction in tumor growth at 10 mg/kg, ip for alterate days combination with TMZ and measured after 2 weeks; assay type: functional, organism-based
MT330 [6] = assay: Anti-tumor activity against human MT330 cells xenografted in NSG mouse assessed as reduction in tumor growth at 10 mg/kg, ip for alterate days combination with TMZ and measured after 8 weeks; assay type: functional, organism-based
MT330 [7] = assay: Induction of cell death in human MT330 cells assessed as reduction in cell viability at 50 uM after 3 days by ELISA; assay type: functional, cell-based; conditions: time 3.0 day
LN-229 [8] = assay: Antiproliferative activity against human LN-229 cells assessed as reduction in cell viability at 80 uM up to 7 days by incucyte live cell assay; assay type: functional, cell-based; conditions: time <= 7.0 day
[9] = molecular target: SWI/SNF-related matrix-associated actin-dependent regulator of chromatin subfamily A member 4 (Homo sapiens) (UniProt P51532); assay: Binding affinity to epitope-tagged BRG1 bromodomain (unknown origin) expressed in MT330 cells assessed as thermostability at < 54.2 degC at 30 uM for 2 hrs by […]; assay type: cell-based
Chain of SWI/SNF-related matrix-associated actin-dependent regulator of chromatin subfamily A member 4 (Homo sapiens) (P51532 whole entry): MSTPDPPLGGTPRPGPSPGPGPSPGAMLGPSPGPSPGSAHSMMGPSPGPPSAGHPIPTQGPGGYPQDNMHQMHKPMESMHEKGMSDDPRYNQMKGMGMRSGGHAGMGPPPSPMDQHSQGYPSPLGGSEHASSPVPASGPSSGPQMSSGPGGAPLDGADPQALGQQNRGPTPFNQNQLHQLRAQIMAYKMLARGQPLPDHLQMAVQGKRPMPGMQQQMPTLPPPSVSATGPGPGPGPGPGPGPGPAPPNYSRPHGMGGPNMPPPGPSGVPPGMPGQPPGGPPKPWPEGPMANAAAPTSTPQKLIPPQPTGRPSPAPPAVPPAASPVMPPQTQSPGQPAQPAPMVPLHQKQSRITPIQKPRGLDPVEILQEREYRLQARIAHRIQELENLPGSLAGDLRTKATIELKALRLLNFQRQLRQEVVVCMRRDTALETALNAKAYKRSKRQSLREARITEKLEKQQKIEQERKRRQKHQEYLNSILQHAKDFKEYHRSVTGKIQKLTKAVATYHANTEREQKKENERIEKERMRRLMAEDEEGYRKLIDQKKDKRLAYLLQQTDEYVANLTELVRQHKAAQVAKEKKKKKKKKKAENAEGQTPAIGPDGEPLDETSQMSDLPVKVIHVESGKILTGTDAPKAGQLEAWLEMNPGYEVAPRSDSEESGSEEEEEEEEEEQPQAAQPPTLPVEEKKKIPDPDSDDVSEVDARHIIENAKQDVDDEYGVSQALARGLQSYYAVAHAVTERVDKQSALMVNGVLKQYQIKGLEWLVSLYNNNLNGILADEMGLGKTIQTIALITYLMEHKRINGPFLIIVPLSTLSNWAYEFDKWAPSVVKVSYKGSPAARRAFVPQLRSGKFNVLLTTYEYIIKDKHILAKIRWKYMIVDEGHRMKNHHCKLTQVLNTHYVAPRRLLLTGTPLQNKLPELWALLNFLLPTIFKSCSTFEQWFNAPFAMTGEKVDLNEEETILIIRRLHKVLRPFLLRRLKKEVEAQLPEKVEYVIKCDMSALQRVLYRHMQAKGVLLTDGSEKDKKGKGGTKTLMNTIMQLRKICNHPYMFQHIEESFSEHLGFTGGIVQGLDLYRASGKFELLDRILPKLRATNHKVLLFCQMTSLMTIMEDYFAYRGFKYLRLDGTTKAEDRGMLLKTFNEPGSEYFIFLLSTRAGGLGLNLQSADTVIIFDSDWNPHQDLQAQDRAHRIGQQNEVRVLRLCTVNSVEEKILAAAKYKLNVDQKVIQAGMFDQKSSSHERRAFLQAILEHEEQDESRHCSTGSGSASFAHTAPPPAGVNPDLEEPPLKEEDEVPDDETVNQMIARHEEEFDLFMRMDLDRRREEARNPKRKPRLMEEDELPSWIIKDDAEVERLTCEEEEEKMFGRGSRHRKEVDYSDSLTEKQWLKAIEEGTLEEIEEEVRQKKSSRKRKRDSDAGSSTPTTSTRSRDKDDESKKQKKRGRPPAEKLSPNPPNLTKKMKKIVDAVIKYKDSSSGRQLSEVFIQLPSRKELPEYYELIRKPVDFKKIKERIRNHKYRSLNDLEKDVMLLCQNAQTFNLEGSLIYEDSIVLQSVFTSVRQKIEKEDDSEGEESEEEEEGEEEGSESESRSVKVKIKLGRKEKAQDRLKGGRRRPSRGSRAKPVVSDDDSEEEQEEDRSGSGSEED

Which Activity (MT330 [1]) does the source give for `O=C(/C=C/N1C[C@H]2C[C@@H]1CN2c1ccccn1)c1cc(F)ccc1O` here?
Its Activity is “Active”.

What about the Activity (MT330 [2]) of the same compound?
The Activity was “Active”.

Which results are given for `O=C(/C=C/N1C[C@H]2C[C@@H]1CN2c1ccc(F)cc1)c1ccccc1`?
Activity (MT330 [1]): Active; Activity (MT330 [2]): Active; Activity (LN-229 [3]): Active; Activity (LN-229 [4]): Active; TGI (MT330 [5]): Active; TGI (MT330 [6]): Active

Which results are given for `O=C(/C=C/N1C[C@H]2C[C@@H]1CN2c1ccccn1)c1cc(Br)ccc1O`?
Activity (MT330 [1]): Active; Activity (MT330 [2]): Active

`O=C(/C=C/N1C[C@H]2C[C@@H]1CN2c1ccc(F)cc1)c1ccccc1O` was tested. Which Activity (MT330 [1]) did it give?
Its Activity is “Active”.

What about the Activity (MT330 [2]) of the same compound?
The Activity was “Active”.

With `O=C(/C=C/N1C[C@H]2C[C@@H]1CN2c1ccccn1)c1cc(Br)cc(Br)c1O` as the compound, how does the Activity (MT330 [1]) read?
The Activity was “Active”.

And the Activity (MT330 [2])?
The Activity was “Active”.

What about the Activity (LN-229 [3]) of the same compound?
Its Activity is “Active”.

What about the Activity (LN-229 [4]) of the same compound?
The Activity was “Active”.

And the TGI (MT330 [5])?
Its TGI is “Active”.

And the TGI (MT330 [6])?
Its TGI is “Active”.

How did the Activity (MT330 [1]) turn out when `COc1ccc(N2C[C@H]3C[C@@H]2CN3/C=C/C(=O)c2ccccc2Cl)cc1` was run?
The Activity was “Active”.

And the Activity (MT330 [2])?
The Activity was “Active”.

Which results are given for `COc1ccc(N2C[C@H]3C[C@@H]2CN3/C=C/C(=O)c2cc(F)ccc2O)cc1`?
Activity (MT330 [1]): Active; Activity (MT330 [2]): Active

For `Cn1nnc2c(C(N)=O)ncn2c1=O`, which Activity (MT330 [7]) is on record?
Its Activity is “Active”.

What about the Activity (LN-229 [8]) of the same compound?
Its Activity is “Active”.

With `O=C(/C=C/N1C[C@H]2C[C@@H]1CN2c1ccccn1)c1ccccc1O` as the compound, how does the Activity (MT330 [1]) read?
The Activity was “Active”.

What about the Activity (MT330 [2]) of the same compound?
Its Activity is “Active”.

What about the Activity (LN-229 [3]) of the same compound?
The Activity was “Active”.

What about the Activity (LN-229 [4]) of the same compound?
The Activity was “Active”.

And the Activity [9]?
The Activity was “Active”.

And the TGI (MT330 [5])?
Its TGI is “Active”.

And the TGI (MT330 [6])?
The TGI was “Active”.

How did the Activity (MT330 [1]) turn out when `O=C(/C=C/N1C[C@H]2C[C@@H]1CN2c1ccccn1)c1ccccc1Cl` was run?
Its Activity is “Active”.

What about the Activity (MT330 [2]) of the same compound?
Its Activity is “Active”.

How did the Activity (MT330 [1]) turn out when `O=C(/C=C/N1C[C@H]2C[C@@H]1CN2c1ccc(F)cc1)c1cc(F)ccc1O` was run?
Its Activity is “Active”.

What about the Activity (MT330 [2]) of the same compound?
Its Activity is “Active”.

Which results are given for `O=C(/C=C/N1C[C@H]2C[C@@H]1CN2c1ccccn1)c1ccc(Cl)cc1O`?
Activity (MT330 [1]): Active; Activity (MT330 [2]): Active

Which Activity (MT330 [1]) does the source give for `COc1ccc(N2C[C@H]3C[C@@H]2CN3/C=C/C(=O)c2ccccc2O)cc1` here?
Its Activity is “Active”.

What about the Activity (MT330 [2]) of the same compound?
Its Activity is “Active”.

`O=C(/C=C/N1C[C@H]2C[C@@H]1CN2c1ccc(F)cc1)c1ccccc1Cl` was tested. Which Activity (MT330 [1]) did it give?
The Activity was “Active”.

What about the Activity (MT330 [2]) of the same compound?
The Activity was “Active”.
